Assay results as given in paper PMC5529531, “Engineered isopeptide bond stabilized fibrin inspired nanoscale peptide based sealants for efficient blood clotting” (Scientific Reports, 2017).
Where “and” joins values, the source holds several entries; their conditions need not be identical. Equal values may be shown once.

System: platelet-free plasma
Assay: Thrombin clotting time experiment with platelet-free plasma
Conditions: 0.35 mL chicken platelet-free plasma at 37 °C + 0.15 mL sealant solution (peptide 1.5 mM in 25 mM PBS pH 7.4, 5 mM CaCl2, 10 µL TG 7 U/mL) or thrombin-calcium reagent; mean ± SD of two independent experiments
Protocol: Plasma was collected by centrifuging whole non-coagulated chicken blood (4500 rpm, 10 min, 4 °C). Thrombin clotting time (Figure S19) experiment was performed by incubating 0.35 mL platelet-free plasma, in a 1.5 mL microcentrifuge tube at 37 °C for 10 min, followed by the addition of the thrombin-calcium reagent, 0.15 mL, maintained at room temperature. The period of clot formation was noted. The same batch of platelet-free plasma was used to determine sealant clotting time. Platelet-free plasma 0.35 mL, was taken in a 1.5 mL microcentrifuge tube incubated at 37 °C followed by addition of 0.15 mL sealant solution. Sealant was prepared by dissolving each peptide in 25 mM PBS buffer, pH 7.4 with 5 mM CaCl2 where final conc. of the peptide was 1.5 mM followed by the addition of 10 µL TG (7 U/1 mL) soln. The period of clot formation was noted. The results are represented as mean ± SD of two independent experiments.
Figure S19. Determination of clotting time of sealants with plasma by thrombin clotting time method. The clotting time in presence of thrombin, sealants 1, 2 and 3 are 32±2, 35±1, 25±1 and 28±2 secs, respectively.

Substance: thrombin: thrombin (bovine plasma), used as thrombin-calcium reagent
- clotting time (thrombin clotting time experiment): 32±2 secs and ~ 32 ± 2 secs
